The text below walks through data of patent publication US11932636B2, “RAD51 inhibitors” (Cyteir Therapeutics, Inc., priority 2019, dated 2024).

The test system of one assay is Daudi cells (AID positive). The assay can be described thus: Compound primary screening: cell death in AID positive Daudi cells (Cell-Titer Glo, Day 7). Particulars: Homo sapiens, 168 h; Daudi cells, AID positive; cell death on Day 7, Cell-Titer Glo; read-out: Cellular activity in AID + (Daudi). The format is cell-based. The gist of the method: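 AID-positive Daudi cells were seeded at 1250 cells per well and treated with serially diluted compound delivered from a DMSO/media master plate. Cultures were incubated at 37 °C, and cell death was measured on Day 7 with Cell-Titer Glo luminescence.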
Regarding `CCNS(=O)(=O)c1cc(Nc2ncccn2)ccc1-c1cnc([C@H]2CC[C@H](NC(=O)OC(C)C)CC2)s1` [Compound 127, isopropyl trans-N-[4-[5-[2-(ethylsulfamoyl)-4-[(pyrimidin-2-yl)amino]phenyl]thiazol-2-yl]cyclohexyl]carbamate], the EC50 was 100 to 1000 nM.

Regarding `CCNS(=O)(=O)c1cc(Nc2cccnc2)ccc1-c1cnc([C@H]2CC[C@H](NC(=O)OC(C)C)CC2)s1` [Compound 128, isopropyl trans-N-[4-[5-[2-(ethylsulfamoyl)-4-[(pyridin-3-yl)amino]phenyl]thiazol-2-yl]cyclohexyl]carbamate], the EC50 is < 100 nM.

As to `CCNS(=O)(=O)c1cc(Nc2ccnn2C(C)C)ccc1-c1cnc([C@H]2CC[C@H](NC(=O)OC(C)C)CC2)s1` [Compound 129, isopropyl trans-N-[4-[5-[2-(ethylsulfamoyl)-4-[(1-isopropyl-1H-pyrazol-5-yl)amino]phenyl]thiazol-2-yl]cyclohexyl]carbamate], the EC50 is < 100 nM.

For `CCNS(=O)(=O)c1cc(N2CCC(O)CC2)ccc1-c1cnc([C@H]2CC[C@H](NC(=O)OC(C)C)CC2)s1` [Compound 130, isopropyl trans-N-[4-[5-[2-(ethylsulfamoyl)-4-[4-hydroxypiperidin-1-yl]phenyl]thiazol-2-yl]cyclohexyl]carbamate], the EC50 was in the range of 100 to 1000 nM.

`CCNS(=O)(=O)c1cc(N(C)CCO)ccc1-c1cnc(C2CCC(NC(=O)OC(C)C)CC2)s1` (stereo not drawn) [Compound 131, isopropyl trans-N-[4-[5-[2-(ethylsulfamoyl)-4-[(2-hydroxyethyl) (methyl))amino]phenyl]thiazol-2-yl]cyclohexyl]carbamate]: the EC50 is < 100 nM.

As for `CCNS(=O)(=O)c1cc(N(C)CCOC)ccc1-c1cnc(C2CCC(NC(=O)OC(C)C)CC2)s1` (stereo not drawn) [Compound 132, isopropyl trans-N-[4-[5-[2-(ethylsulfamoyl)-4-[(2-methoxyethyl) (methyl))amino]phenyl]thiazol-2-yl]cyclohexyl]carbamate], the EC50 is 100 to 1000 nM.

As for `CCNS(=O)(=O)c1cc(N2CCS(=O)(=O)CC2)ccc1-c1cnc([C@H]2CC[C@H](NC(=O)OC(C)C)CC2)s1` [Compound 133, isopropyl trans-N-[4-[5-[2-(ethylsulfamoyl)-4-[1,1-dioxidothiomorpholino]phenyl]thiazol-2-yl]cyclohexyl]carbamate], the EC50 was 1000 to 10000 nM.

Turning to `CCNS(=O)(=O)c1cc(N2CCOCC2)ccc1-c1cnc([C@H]2CC[C@H](NC(=O)OC(C)C)CC2)s1` [Compound 134, isopropyl trans-N-[4-[5-[2-(ethylsulfamoyl)-4-[morpholino]phenyl]thiazol-2-yl]cyclohexyl]carbamate], the EC50 is 100 to 1000 nM.

As for `CCNS(=O)(=O)c1cc(N2CCCCC2)ccc1-c1cnc([C@H]2CC[C@H](NC(=O)OC(C)C)CC2)s1` [Compound 135, isopropyl trans-N-[4-[5-[2-(ethylsulfamoyl)-4-[piperidin-1-yl]phenyl]thiazol-2-yl]cyclohexyl]carbamate], the EC50 fell in the range of 100 to 1000 nM.

Take `CCNS(=O)(=O)c1cc(Nc2ccnc(C(C)C)n2)ccc1-c1cnc([C@H]2CC[C@H](NC(=O)OC(C)C)CC2)s1` [Compound 136, isopropyl trans-N-[4-[5-[2-(ethylsulfamoyl)-4-[(2-isopropylpyrimidin-4-yl)amino]phenyl]thiazol-2-yl]cyclohexyl]carbamate]: the EC50 is < 100 nM.

As for `CCNS(=O)(=O)c1cc(NC2COC2)ccc1-c1cnc([C@H]2CC[C@H](NC(=O)OC(C)C)CC2)s1` [Compound 137, isopropyl trans-N-[4-[5-[2-(ethylsulfamoyl)-4-[(oxetan-3-yl)amino]phenyl]thiazol-2-yl]cyclohexyl]carbamate], the EC50 is < 100 nM.

Consider `CCNS(=O)(=O)c1cc(Nc2cncn2C(C)C)ccc1-c1cnc([C@H]2CC[C@H](NC(=O)OC(C)C)CC2)s1` [Compound 138, isopropyl trans-N-[4-[5-[2-(ethylsulfamoyl)-4-[(3-isopropylimidazol-4-yl)amino]phenyl]thiazol-2-yl]cyclohexyl]carbamate], for which the EC50 lay within 100 to 1000 nM.

In the case of `CCNS(=O)(=O)c1cc(Nc2cn(C(C)C)cn2)ccc1-c1cnc([C@H]2CC[C@H](NC(=O)OC(C)C)CC2)s1` [Compound 139, isopropyl trans-N-[4-[5-[2-(ethylsulfamoyl)-4-[(1-isopropyl-1H-imidazol-4-yl)amino]phenyl]thiazol-2-yl]cyclohexyl]carbamate], the EC50 was < 100 nM.

For `CCNS(=O)(=O)c1cc(Nc2cncc(C(C)C)n2)ccc1-c1cnc([C@H]2CC[C@H](NC(=O)OC(C)C)CC2)s1` [Compound 140, isopropyl trans-N-[4-[5-[2-(ethylsulfamoyl)-4-[(6-isopropylpyrazin-2-yl)amino]phenyl]thiazol-2-yl]cyclohexyl]carbamate], the EC50 was 100 to 1000 nM.

As for `CCNS(=O)(=O)c1cc(Nc2ncc(C(C)C)[nH]2)ccc1-c1cnc([C@H]2CC[C@H](NC(=O)OC(C)C)CC2)s1` [Compound 142, isopropyl trans-N-[4-[5-[2-(ethylsulfamoyl)-4-[(5-isopropyl-1H-imidazol-2-yl)amino]phenyl]thiazol-2-yl]cyclohexyl]carbamate], the EC50 lay in the range of 1000 to 10000 nM.

For the molecule `CCNS(=O)(=O)c1cc(Nc2ccc(C(C)C)nn2)ccc1-c1cnc([C@H]2CC[C@H](NC(=O)OC(C)C)CC2)s1` [Compound 143, isopropyl trans-N-[4-[5-[2-(ethylsulfamoyl)-4-[(6-isopropylpyridazin-3-yl)amino]phenyl]thiazol-2-yl]cyclohexyl]carbamate], the EC50 is < 100 nM.

In the case of `CCNS(=O)(=O)c1cc(NC2CNC2)ccc1-c1cnc([C@H]2CC[C@H](NC(=O)OC(C)C)CC2)s1` [Compound 144, isopropyl trans-N-[4-[5-[4-(azetidin-3-ylamino)-2-(ethyl-sulfamoyl)phenyl]thiazol-2-yl]cyclohexyl]carbamate], the EC50 fell in the range of 100 to 1000 nM.

Take `CCNS(=O)(=O)c1cc(NC2CN(CC(C)C)C2)ccc1-c1cnc([C@H]2CC[C@H](NC(=O)OC(C)C)CC2)s1` [Compound 145, isopropyl trans-N-[4-[5-[2-(ethylsulfamoyl)-4-[(1-isobutyl-azetidin-3-yl)amino]phenyl]thiazol-2-yl]cyclohexyl]carbamate]: the EC50 is 100 to 1000 nM.

Regarding `CCNS(=O)(=O)c1cc(NC2CN(C(=O)C(C)C)C2)ccc1-c1cnc([C@H]2CC[C@H](NC(=O)OC(C)C)CC2)s1` [Compound 146, isopropyl trans-N-[4-[5-[2-(ethylsulfamoyl)-4-[[1-(2-methylpropanoyl)azetidin-3-yl]amino]phenyl]thiazol-2-yl]cyclohexyl]carbamate], the EC50 was < 100 nM.

On to `CCNS(=O)(=O)c1cc(NC2(C)CNC2)ccc1-c1cnc([C@H]2CC[C@H](NC(=O)OC(C)C)CC2)s1` [Compound 147, isopropyl trans-N-[4-[5-[2-(ethylsulfamoyl)-4-[(3-methylazetidin-3-yl)amino]phenyl]thiazol-2-yl]cyclohexyl]carbamate], for which the EC50 was 1000 to 10000 nM.

The assay is the same for the next values; noted with them: Homo sapiens, Daudi, 168 h, read-out: Cellular activity in AID + (Daudi).
Turning to `CCNS(=O)(=O)c1cc(Nc2ncc(C)[nH]2)ccc1-c1cnc([C@H]2CC[C@H](NC(=O)OC(C)C)CC2)s1` [Compound 141, isopropyl trans-N-[4-[5-[2-(ethylsulfamoyl)-4-[(5-methyl-1H-imidazol-2-yl)amino]phenyl]thiazol-2-yl]cyclohexyl]carbamate], the EC50 lay in the range of 1000 to 10000 nM.
